According to patent US9017692B2, “Antimicrobial agent, bacterial strain, biosynthesis, and methods of use” (priority 2011, dated 2015):
Values after ≈ are worked out from the molar mass of the structure shown. Read-outs that look alike come from different tables or passages of the source.

How the values were obtained:
PAE.2281 = experiment: MIC, CLSI broth microdilution, Gram-negative clinical isolates; format: cell-based, Pseudomonas aeruginosa; conditions: Pseudomonas aeruginosa, read-out: Minimum inhibitory concentration (MIC)
Protocol: (§1) Plates were incubated at 35° C. for 24 h.
(§2) The activity of paenibacterin was also tested against clinical isolates of the following Gram-negative bacterial strains: four strains of the species Pseudomonas aeruginosa (PAE), three strains of the species Acinetobacter baumannii (ABA), two strains of the species Escherichia coli (ECO), and four strains of the species Klebsiella pneumoniae (KPN). Particularly, the strains of Gram-negative bacteria included polymyxin B-resistant (PMB-R) and polymyxin B-sensitive (PMB-S) strains of each above listed species. The MICs were determined using the above described CLSI broth microdilution method, in which the method was performed with both non-binding surface coated (NBS) and polystyrene (PS) 96-well plates (Tables 11 and 12, respectively). The MICs were generally lower in the NBS 96-well plates as compared to the PS 96-well plates.

PAE.2325 = experiment: as above; format: cell-based, Pseudomonas aeruginosa; conditions: Pseudomonas aeruginosa, read-out: Minimum inhibitory concentration (MIC)
Protocol: as §1, §2

PAE.44 = experiment: as above; format: cell-based, Pseudomonas aeruginosa
Protocol: as §1, §2

PAE.999 = experiment: as above; format: cell-based, Pseudomonas aeruginosa; conditions: Pseudomonas aeruginosa, read-out: Minimum inhibitory concentration (MIC)
Protocol: as §1, §2

ABA.1570 = experiment: as above; format: cell-based, Acinetobacter baumannii; conditions: Acinetobacter baumannii, read-out: Minimum inhibitory concentration (MIC)
Protocol: as §1, §2

ABA.2232 = experiment: as above; format: cell-based, Acinetobacter baumannii; conditions: Acinetobacter baumannii, read-out: Minimum inhibitory concentration (MIC)
Protocol: as §1, §2

ABA.2315 = experiment: as above; format: cell-based, Acinetobacter baumannii
Protocol: as §1, §2

ATCC 25922 ECO.35 = experiment: as above; format: cell-based, Escherichia coli; conditions: Escherichia coli, read-out: Minimum inhibitory concentration (MIC)
Protocol: as §1, §2

ECO.2276 = experiment: as above; format: cell-based, Escherichia coli; conditions: Escherichia coli, read-out: Minimum inhibitory concentration (MIC)
Protocol: as §1, §2

KPN.2317 = experiment: as above; format: cell-based, Klebsiella pneumoniae; conditions: Klebsiella pneumoniae, read-out: Minimum inhibitory concentration (MIC)
Protocol: as §1, §2

KPN.674 = experiment: as above; format: cell-based, Klebsiella pneumoniae; conditions: Klebsiella pneumoniae, read-out: Minimum inhibitory concentration (MIC)
Protocol: as §1, §2

PMB-R, KPN.2463 = experiment: as above; format: cell-based, Klebsiella pneumoniae
Protocol: as §1, §2

PMB-S, KPN.2461 = experiment: as above; format: cell-based, Klebsiella pneumoniae
Protocol: as §1, §2

[1] = test system: DR-MRSA from MW2 SP SAU.1616; experiment: microbe, parasite or virus in culture; conditions: Staphylococcus aureus, MRSA, read-out: Minimum inhibitory concentration (MIC)
Protocol: (§3) The activity of paenibacterin against several strains of Gram-positive and Gram-negative foodborne pathogens is summarized in Table 10. The data is reported as minimum inhibitory concentrations (MIC) as an average of three replicates for paenibacterin against the various listed bacterial strains. […] MICs were determined according to the CLSI broth microdilution method (see, Clinical and Laboratory Standards Institute (CLSI). 2009. Methods for dilution antimicrobial susceptibility tests for bacteria that grow aerobically; approved standard. […]. CLSI, Wayne, Pa.). Briefly, HPLC-purified paenibacterin was dissolved in methanol and diluted to appropriate concentration with cation-adjusted Mueller-Hinton II broth (Difco). Aliquots (25 μl) of serially-diluted paenibacterin was dispensed into wells of a 96-well plate; an equal amount of 1/10 diluted overnight bacterial culture was added to wells. Plates were incubated at 35° C. for 24 h. Cell growth after incubation was examined and determined using a microtiter plate reader at 600 nm. Concentration of paenibacterin is determined based on a molecular weight of 1604 Da.
(§4) The activity of paenibacterin was further tested against clinical isolates of the following Gram-positive bacteria: methicillin-sensitive Staphylococcus aureus (MSSA), methicillin-resistant S. aureus (MRSA), vancomycin-sensitive Enterococcus faecalis, vancomycin-resistant E. faecalis (VRE), Streptococcus pneumoniae, and laboratory derived daptomycin-resistant (DR) MSSA, MRSA, and VRE strains. The MICs were determined using the above described CLSI broth microdilution method, in which the method was performed with non-binding surface coated (NBS) 96-well plates.

[2] = test system: DR-MSSA from SAU.42 SAU.278; experiment: microbe, parasite or virus in culture; conditions: Staphylococcus aureus, MSSA, read-out: Minimum inhibitory concentration (MIC)
Protocol: as §3, §4

[3] = test system: DR-VRE from EFS.807 EFS.2731; experiment: microbe, parasite or virus in culture; conditions: Enterococcus faecalis, VRE, read-out: Minimum inhibitory concentration (MIC)
Protocol: as §3, §4

[4] = test system: DS-VRE ATCC 700802 EFS.807; experiment: microbe, parasite or virus in culture; conditions: Enterococcus faecalis, ATCC700802|VRE, read-out: Minimum inhibitory concentration (MIC)
Protocol: as §3, §4

MRSA ATCC 43300 SAU.399 = experiment: microbe, parasite or virus in culture; conditions: Staphylococcus aureus, ATCC43300|MRSA, read-out: Minimum inhibitory concentration (MIC)
Protocol: as §3, §4

MSSA ATCC 29213 SAU.42 = experiment: microbe, parasite or virus in culture; conditions: Staphylococcus aureus, ATCC29213|MSSA, read-out: Minimum inhibitory concentration (MIC)
Protocol: as §3, §4

WT ATCC 29212 EFS.43 = experiment: microbe, parasite or virus in culture; conditions: Enterococcus faecalis, ATCC29212, read-out: Minimum inhibitory concentration (MIC)
Protocol: as §3, §4

WT ATCC 49619 SPN.31 = experiment: microbe, parasite or virus in culture; conditions: Streptococcus pneumoniae, ATCC49619, read-out: Minimum inhibitory concentration (MIC)
Protocol: as §3, §4

Compound: NC[C@H]1O[C@H](O[C@H]2[C@H](O)[C@@H](O[C@H]3O[C@H](CO)[C@@H](O)[C@H](N)[C@H]3O)[C@H](N)C[C@@H]2N)[C@H](N)C[C@@H]1O [tobramycin]
- MIC (PAE.2281; NBS 96-well plates): 1 to 2 µg/mL (≈ 2.14 to 4.28 µM)
- MIC (PAE.2281; PS 96-well plates): 1 µg/mL (≈ 2.14 µM)
- MIC (PAE.2325; NBS 96-well plates): > 32 µg/mL
- MIC (PAE.2325; PS 96-well plates): > 32 µg/mL
- MIC (PAE.44; Pseudomonas aeruginosa, non-binding surface coated (NBS) 96-well plates, read-out: Minimum inhibitory concentration (MIC)): 0.5 µg/mL (≈ 1.07 µM)
- Minimum inhibitory concentration (MIC) (PAE.44; polystyrene (PS) 96-well plates): 0.5 µg/mL (≈ 1.07 µM)
- MIC (PAE.999; NBS 96-well plates): 32 µg/mL (≈ 68.4 µM)
- MIC (PAE.999; PS 96-well plates): > 32 µg/mL
- MIC (ABA.1570; NBS 96-well plates): 32 µg/mL (≈ 68.4 µM)
- MIC (ABA.1570; PS 96-well plates): 16 µg/mL (≈ 34.2 µM)
- MIC (ABA.2232; NBS 96-well plates): 0.5 µg/mL (≈ 1.07 µM)
- MIC (ABA.2232; PS 96-well plates): 1 µg/mL (≈ 2.14 µM)
- MIC (ABA.2315; Acinetobacter baumannii, NBS 96-well plates, read-out: Minimum inhibitory concentration (MIC)): > 32 µg/mL
- Minimum inhibitory concentration (MIC) (ABA.2315; PS 96-well plates): >32 µg/mL
- MIC (ATCC 25922 ECO.35; ATCC25922, ECO.35 (ATCC 25922), NBS 96-well plates): 1 µg/mL (≈ 2.14 µM)
- MIC (ATCC 25922 ECO.35; ATCC25922, ECO.35, PS 96-well plates): 1 µg/mL (≈ 2.14 µM)
- MIC (ECO.2276; NBS 96-well plates): 1 to 2 µg/mL (≈ 2.14 to 4.28 µM)
- MIC (ECO.2276; PS 96-well plates): 2 µg/mL (≈ 4.28 µM)
- MIC (KPN.2317; NBS 96-well plates): > 32 µg/mL
- MIC (KPN.2317; PS 96-well plates): > 32 µg/mL
- MIC (KPN.674; NBS 96-well plates): 8 µg/mL (≈ 17.1 µM)
- MIC (KPN.674; PS 96-well plates): 8 µg/mL (≈ 17.1 µM)
- Minimum inhibitory concentration (MIC) (PMB-R, KPN.2463; KPN.2463, PS 96-well plates): 32 µg/mL (≈ 68.4 µM)
- MIC (PMB-R, KPN.2463; Klebsiella pneumoniae, KPN.2463 (PMB-R), NBS 96-well plates, read-out: Minimum inhibitory concentration (MIC)): 32 µg/mL (≈ 68.4 µM)
- Minimum inhibitory concentration (MIC) (PMB-S, KPN.2461; KPN.2461, PS 96-well plates): 32 µg/mL (≈ 68.4 µM)
- MIC (PMB-S, KPN.2461; Klebsiella pneumoniae, KPN.2461 (PMB-S), NBS 96-well plates, read-out: Minimum inhibitory concentration (MIC)): 32 µg/mL (≈ 68.4 µM)
- MIC [1]: 0.5 µg/mL (≈ 1.07 µM)
- MIC [2]: 0.5 µg/mL (≈ 1.07 µM)
- MIC [3]: > 32 µg/mL
- MIC [4]: > 32 µg/mL
- MIC (MRSA ATCC 43300 SAU.399): > 32 µg/mL
- MIC (MSSA ATCC 29213 SAU.42): 0.5 µg/mL (≈ 1.07 µM)
- MIC (WT ATCC 29212 EFS.43): 8 µg/mL (≈ 17.1 µM)
- MIC (WT ATCC 49619 SPN.31): 0.25 µg/mL (≈ 0.535 µM)
